Data from paper PMC7802073, “Small Molecule Inhibitors of the Bacterioferritin (BfrB)–Ferredoxin (Bfd) Complex Kill Biofilm-Embedded Pseudomonas aeruginosa Cells” (ACS Infectious Diseases, 2020).

How the values were obtained:
BfrB = BfrB (Pseudomonas aeruginosa, UniProt Q9HY79); experiment: Dissociation constant (Kd) for BfrB by fluorescence polarization; assay type: binding
Procedure: Dissociation constants for the interaction between BfrB and 3-aminoisoindoline-1,3-dione derivatives (Table 1, Figure S1) were measured in vitro with a fluorescence polarization method based on the intrinsic fluorescence of the isoindoline-1,3-dione moiety, as described previously.[25]
25 (A) and KM-5-66 (B) for BfrB, evaluated by fluorescence polarization, as described previously1.
Values were obtained in 100 mM potassium phosphate buffer (pH 7.6) containing 1 mM TCEP and
0.5% DMSO. The initial concentrations of KM-5-25 and KM-5-66 were 5 µM. The Kd values are the
average and standard deviation from three independent measurements. […]

P. aeruginosa PAO1 = experiment: Half maximal inhibitory concentration (IC50) on planktonic growth, CFU/mL enumeration; assay type: cell-based, Pseudomonas aeruginosa; conditions: Pseudomonas aeruginosa, PAO1, defined media, 24 h, 35 °C, 2% DMSO, this work, read-out: IC50
Procedure: Chemicals were purchased from Fisher Scientific unless otherwise stated. P. aeruginosa PAO1 was obtained from the University of Washington Genome center.[81] The PAO1 strain expressing enhanced yellow fluorescent protein (EYFP) was prepared previously.[26] Clinical isolates of P. aeruginosa were purchased from JMI Laboratories (North Liberty, IA, USA). […] Starter cultures were grown from a single colony at 37 °C and shaking at 220 rpm for 14 h in 5 mL PI media supplemented with 10 μM Fe. Pellicle biofilms were cultured for 48 h at 30 °C in PI media supplemented with 20 μM Fe. Surface-attached biofilms were cultured in AB minimal media[82] supplemented with trace metals [0.15 μM (NH4)2MoO4, 3 μM CuSO4, 2 μM Co(NO3)2, 9.4 μM Na2B4O7, and 7.6 μM ZnSO4], 3 mM glucose and 15 μM Fe. Iron supplementation was carried out by addition of a small volume of filter-sterilized 10 mM (NH4)2Fe(SO4)2 (pH ∼ 2.0) solution. […]; IC50 values (Table 1, Figure S1) were determined as reported previously[25] with small modifications. In brief: precultures of P. aeruginosa PAO1 (5 mL) were grown in LB media for 13 h at 37 °C and 220 rpm in 50 mL conical tubes (VWR International, PA). The cells were centrifuged for 5 min at 4000 rpm and 4 °C, washed two times and then diluted in buffer (100 mM KH2PO4 and 15 mM (NH4)2SO4) to an optical density at 600 nm (OD600) of 0.1. A small volume of compound stock solution (10 mM) was transferred to a microcentrifuge tube, initially diluted with DMSO to 20 μL, and then diluted to 1 mL with preculture cell suspension in defined media with OD600 = 0.0001, so the final DMSO concentration is 2%. The resultant cell suspension (200 μL) was transferred to a clear-bottom polystyrene 96-well plate (VWR) covered with a lid and incubated at 35 °C and 205 cpm for 24 h in a Synergy H1 microplate reader (Biotek Instruments Inc., Vermont). The cell cultures were serially diluted and then plated on PI Agar (PIA; BD biosciences) plates for enumeration of viable cells (CFU/mL). The % growth was calculated from the ratio CFU/mL(treated)/CFU/mL(untreated control). To calculate the IC50 values, the % growth was plotted as a function of compound concentration, expressed as log[compound] (μM), and fitted to the 4-parameter logistic model describing the sigmoid-shaped response pattern (eq 1),[84] where b is the slope factor, max is the upper asymptote (plateau), and min is the lower asymptote. Values are the average and standard deviation from three independent experiments. [drawing 1] 1

Chain of BfrB (Q9HY79 whole entry): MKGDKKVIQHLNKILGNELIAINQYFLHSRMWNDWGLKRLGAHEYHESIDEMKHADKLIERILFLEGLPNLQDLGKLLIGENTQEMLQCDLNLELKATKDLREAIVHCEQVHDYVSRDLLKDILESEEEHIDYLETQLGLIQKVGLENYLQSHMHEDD

O=C1NC(=O)c2c(NCCCc3cc(O)cc(Cl)c3)cccc21 [KM-5-66, 4-((3-(3-Chloro-5-hydroxyphenyl)propyl)amino)isoindoline-1,3-dione]
Kd (BfrB): 0.35 ± 0.05 µM
IC50 (P. aeruginosa PAO1): 42 ± 6 µM

O=C1NC(=O)c2c(NCc3cc(Cl)ccc3O)cccc21 [KM-5-25, 4-((5-Chloro-2-hydroxybenzyl)amino)isoindoline-1,3-dione]
Kd (BfrB): 4 ± 0.6 µM
IC50 (P. aeruginosa PAO1): 69 ± 7 µM
